From patent USRE39192E1, “Supplemented and unsupplemented tissue sealants, methods of their production and use” (American National Red Cross, priority 1990, dated 2006)

What was measured:
[1] = Release of 5-FU from FG clots; details: clots containing 50 mg of solid anhydrous 5-FU
[2] = Saturation concentration of 5-FU in water; type: physicochemical
[3] = tested on: human ovarian carcinoma cell (OVACAR); assay: Growth inhibition of OVCAR cells by eluates of taxol-supplemented fibrin sealant (MTT assay); type: cell-based; details: taxol in solid anhydrous form
Protocol: The kinetics of taxol delivery from fibrin sealant were initially evaluated, by incorporating taxol (0.26 mg), either as an anhydrous solid or dissolved in ethanol, into 400 μl fibrin sealant composition. The resulting supplemented fibrin matrices were then placed in 2 ml histidine buffer, and incubated at 37° C. The buffer was exchanged after two days, and again ten days later. The relative concentration of taxol in the resulting eluates determined by measuring their ability to inhibit the growth of a human ovarian carcinoma cell (OVACAR) in vitro (MacPhee et al., In Current Trends in Surgical Tissue Adhesives: Proceedings of the First International Symposium on Surgical Adhesives, R. Saltz and D. Sierra, eds. Springer-Verlag).
Briefly, 1000 OVCAR cells in 100 μl of growth medium were plated into each well of a 96 well culture plate and incubated for 24 hours. A 100 μl volume of various dilutions of the eluates was then placed into the wells (10 wells per dilution), and the plate incubated at 37° C. After five days, the number of cells in each well was measured using the MTT assay (Rapaport et al., American Journal of Clinical Pathology 97:84 (1992)). […] The resulting chromaphore is detected by spectrophotometry at 570 nm. […]

[4] = tested on: human dermal fibroblasts (HDFs); assay: Cell chemotaxis assay (modified Boyden's chamber), human dermal fibroblasts; type: cell-based
Description: (§1) NIH/3T3 fibroblasts at passage 126 were purchased from the American Type Culture Collection, Rockville, Md. Cultures from passages 129-133 were used in the chemotaxis assays. Cultures were propagated in DMEM supplemented with 10%. Calf serum and approximately 1% antibiotic antimycotic solution. Human dermal fibroblasts (HDFs) were purchased from Clonetics, Inc. (San Diego, Calif.) at passage 2. Cultures from passages 3-5 were used in the chemotaxis assays. Cultures were cultivated in DMEM supplemented with 20% FBS (Hyclone Laboratories, Inc., Logan, Utah) and approximately 1% antibiotic antimycotic solution (Gibco, Grand Island, N.Y.).
(§2) The procedure used to determine cellular chemotaxis was a combination of two known methodologies. A modification of Boyden's chamber was used as follows: Millicell-PCF (Millipore, Inc., Bedford, Mass.) (12.0 μm) 12.0 mm diameter inserts were placed in individual wells of 24 well plates to create the upper and lower chemotaxis chambers. Chemotaxis results were arrived at by performing checkerboard analysis for every combination of cells and growth factors. Concentrations ranging from 0.1, 1, 10, 100 ng/ml with/without added heparin (10 U/ml) were used for FGF-1, FGF-2 (no heparin) and FGF-4 with all the cell types mentioned in the materials section. Briefly, cultures were trypsanized and placed in DMEM+0.1% Bovine Serum Albumin (BSA) (Sigma Chemical Co., St. Louis, Mo.) for approximately one hour at 37° C. in a 5% CO2 humidified chamber. Tow to 2.5×10^5 cells in 50 μl were added per insert to the upper chamber of the setup of the 24 well plates. Treatments were added as mentioned above. The assay was kept at 37° C. in a 5% CO2 humidified chamber for 4 hours. All combinations tested were performed in triplicate. At the end of 4 hours, the plates were removed from the incubator and the filters were stained following the protocol for staining included with the Millicell-PCT inserts. Briefly, the fluid surrounding the inside and outside of the Millicell-PCF inserts were removed. Three percent glutaraldehyde (Sigma Chemical Co., St. Louis, Mo.) was added to the outside and inside of the inserts for approximately 20 minutes. Following removal of the 3.0% glutaraldehyde, 0.5% Triton X-100 (E.M. Science, Cherry Hill, N.J.) was added for 5-7 minutes. On removal of the 0.5% Triton X-100, Fisher's Hematoxylin Solution Gill's Formulation (Fisher Scientific, Newark, Del.) No.1 was added for about 10 minutes. This solution was washed off in running distilled water for about 5 minutes. Using a cotton swab the upper side of the filter was swabbed to remove cells which had not migrated. Filters, were mounted lower side facing up on slides in Crystal Mount™ (Biomedia, Inc., Foster City, Calif.) solution and 10 random field were counted per slide both visually at 400× and at 200×using an Image Analyzing System to automate the enumeration of the cells on the underside of the filters.
(§3) As required, checkerboard analysis was carried out to determine random migration, and positive and negative chemotaxis. Growth factors were added to the upper and/or lower chambers to observe whether cells migrated towards the GF alone (chemotaxis), whether migration was random irrespective of whether the growth factor was added to the upper or lower well (chemokinesis) or whether cell migration was against the chemotactic gradient (negative chemotaxis).

NIH 3T3 fibroblasts = assay: Cell chemotaxis assay (modified Boyden's chamber), NIH 3T3 fibroblasts; type: cell-based
Description: as §1
as §2, with “Concentrations ranging from 0.1, 1, 10, 100 ng/ml with/without added heparin (10 U/ml) were used for FGF-1, FGF-2 (no heparin) and FGF-4 with all the cell types mentioned in the materials section.” left out
as §3

[5] = tested on: human umbilical endothelial cells; assay: Human umbilical endothelial cells embedded in FG; type: cell-based; details: within 24 hours, maintained at least 5 days
Protocol: To study their growth, human umbilical endothelial cells, 10^5 or more cells per ml, were embedded in FG, the protein concentration of which was 4 mg/ml. The concentration of thrombin in the FG was adjusted to 0.6 NIH U/ml. The culture medium used in all of the experiments was M199 (Sigma Chemical Co., St. Louis, Mo.) supplemented with 10% fetal bovine serum, 10 μg/ml streptomycin, 100 U/ml penicillin, 1 ng/ml FGF-1 and 10 U/ml heparin.
As a control, an identical cell suspension was cultured on a surface coated with fibronectin at 10 μg/cm^2. […] FIGS. 9 and 10 show this situation at 24 and 48 hours, respectively.

[6] = Compatibility of TGF-β2 in Topical Fibrinogen Complex (ELISA, bio-assay); details: after two weeks in TFC at 2-8° C.
Protocol: Fibrinogen and thrombin were prepared per instruction of the American Red Cross, Rockville, Md. Upon reconstitution, the protein concentration of the Topical Fibrinogen Complex, (TFC) was 120 mg/ml (the standard formulation for hemostasis). The human thrombin was reconstituted with 40 mM CaCl2 to yield a solution at 300 units/ml.
To evaluate the compatibility of transforming growth factor β2 (TGF-β2) in Topical Fibrinogen Complex, TFG-β2 (purified recombinant human protein provided by Genzyme Corp., Framingham, Mass.) was spiked into TFC at 10 and 1 μg/ml. Samples were incubated for two weeks at 2-8° C. TGF-β2 was extracted for analysis by passing the gel-like material through a narrow bore stopcock connected to two syringes.

O=c1[nH]cc(F)c(=O)[nH]1 [5-FU, 5-fluorouracil]
duration of 5-FU delivery [1]: at least 75 hours
concentration in water saturated with 5-FU [2]: 17 mg/mL

CC(=O)O[C@H]1C(=O)[C@@]2(C)[C@H]([C@H](OC(=O)c3ccccc3)[C@]3(O)C[C@H](OC(=O)[C@H](O)[C@@H](NC(=O)c4ccccc4)c4ccccc4)C(C)=C1C3(C)C)[C@]1(OC(C)=O)CO[C@@H]1C[C@@H]2O [taxol, paclitaxel]
time OVCAR cells were significantly inhibited [3]: up to 85 days

fibronectin [reference compound]
concentration of maximal chemotactic response [4]: 20 µg/mL
concentration of maximal chemotactic response (NIH 3T3 fibroblasts): 20 µg/mL
migrated cells (checkerboard analysis) (NIH 3T3 fibroblasts; lower 0 μg/ml, upper 20 μg/ml): 69.6 +/− 12.25
migrated cells (checkerboard analysis) (NIH 3T3 fibroblasts; lower 0 μg/ml, upper 50 μg/ml): 62.0 +/− 2.616
migrated cells (checkerboard analysis) (NIH 3T3 fibroblasts; lower 10 μg/ml, upper 0 μg/ml): 68.03 +/− 10.793
migrated cells (checkerboard analysis) (NIH 3T3 fibroblasts; lower 10 μg/ml, upper 10 μg/ml): 47.53 +/− 5.605
migrated cells (checkerboard analysis) (NIH 3T3 fibroblasts; lower 10 μg/ml, upper 20 μg/ml): 64.86 +/− 7.961
migrated cells (checkerboard analysis) (NIH 3T3 fibroblasts; lower 10 μg/ml, upper 50 μg/ml): 74.66 +/− 3.946
migrated cells (checkerboard analysis) (NIH 3T3 fibroblasts; lower 20 μg/ml, upper 0 μg/ml): 90.53 +/− 5.203
migrated cells (checkerboard analysis) (NIH 3T3 fibroblasts; lower 20 μg/ml, upper 10 μg/ml): 88.73 +/− 4.152
migrated cells (checkerboard analysis) (NIH 3T3 fibroblasts; lower 20 μg/ml, upper 20 μg/ml): 56.9 +/− 3.289
migrated cells (checkerboard analysis) (NIH 3T3 fibroblasts; lower 20 μg/ml, upper 50 μg/ml): 76.23 +/− 1.8190
migrated cells (checkerboard analysis) (NIH 3T3 fibroblasts; lower 50 μg/ml, upper 0 μg/ml): 72.43 +/− 8.276
migrated cells (checkerboard analysis) (NIH 3T3 fibroblasts; lower 50 μg/ml, upper 10 μg/ml): 91.3 +/− 1.003
migrated cells (checkerboard analysis) (NIH 3T3 fibroblasts; lower 50 μg/ml, upper 20 μg/ml): 63.26 +/− 3.835
migrated cells (checkerboard analysis) (NIH 3T3 fibroblasts; lower 50 μg/ml, upper 50 μg/ml): 57.46 +/− 2.287
migrated cells (checkerboard analysis) (NIH 3T3 fibroblasts; lower compartment 0 μg/ml, upper compartment 10 μg/ml): 62.3 +/− 3.269
cell morphology [5]: acquired a cobblestone shape

B1: TGF-β2: purified recombinant human protein provided by Genzyme Corp., spiked into TFC / fibrin clot (protein, UniProt P61812 303-414, looked up)
Transforming growth factor …: ALDAAYCFRNVQDNCCLRPLYIDFKRDLGWKWIHEPKGYNANFCAGACPYLWSSDTQHSRVLSLYNTINPEASASPCCVSQDLEPLTILYYIGKTPKIEQLSNMIVKSCKCS
bio-assay of extract [6]: bioactive
